Columns and labels:
[1] = molecular target: T1, quinone reductase 2 (QR2) (Homo sapiens, UniProt P16083); assay: QR2 inhibition, comparative IC50 data; assay type: biochemical; conditions: QR2 inhibitors
T1 sequence (P16083 1-231): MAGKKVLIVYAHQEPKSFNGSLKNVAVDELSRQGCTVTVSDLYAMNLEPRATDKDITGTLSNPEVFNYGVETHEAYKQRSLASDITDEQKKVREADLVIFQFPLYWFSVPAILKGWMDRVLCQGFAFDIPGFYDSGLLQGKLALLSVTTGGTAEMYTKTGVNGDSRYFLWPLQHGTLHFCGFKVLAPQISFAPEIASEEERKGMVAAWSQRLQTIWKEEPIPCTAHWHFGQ

[2] = system: mouse model of closed head injury (TBI); assay: Rotorod vestibulomotor function after closed head injury (TBI); assay type: in vivo; conditions: mice, i.p. at 4 hours following TBI, after 5 days
Experimental: The TBI model involves a single impact designed to avoid skull fracture. Injury is produced predominantly through acceleration/deceleration forces. For this model, therapeutic compounds were delivered i.p. at 4 hours following TBI, and then once weekly thereafter for the duration of the experiment, which terminated after 28 days following assessment of spatial learning and memory. […] Mice were tested on Rotorod for 5 consecutive days post TBI, then on day 7 and day 28.

[3] = system: mouse model of closed head injury (TBI); assay: Morris Water maze spatial learning and memory after TBI; assay type: in vivo; conditions: days 28-31 post-injury
Experimental: The TBI model involves a single impact designed to avoid skull fracture. Injury is produced predominantly through acceleration/deceleration forces. For this model, therapeutic compounds were delivered i.p. at 4 hours following TBI, and then once weekly thereafter for the duration of the experiment, which terminated after 28 days following assessment of spatial learning and memory. FIG. 5A-B summarize the results of spatial learning and memory assessments at 4 weeks following TBI, using the Morris Water maze to test the ability of mice to locate a submerged platform. The mice performed four trials/day for 4 consecutive days (inter-trial interval=30 min). The latency to locate the platform was recorded, and the 4 trials per day were averaged. Mice were tested on days 28-31 post-injury (n=11-12 mice per group). Standard control trials to confirm intact vision were also performed.

[4] = system: permanent MCA occlusion model; conditions: cited from earlier work
[5] = acidic lysomal pHs between 4 and 5.5; cited from earlier work

IC50 [1] | Compound | improvement in Rotorod latency over CQ [2] | improvement in Rotorod latency over vehicle [2] | improvement in learning and memory over vehicle (Morris Water maze) [3] | reduction of stroke volumes [4] | fraction doubly protonated [5]
7.51 µM | COc1ccc2c(NCc3cccnc3)ccnc2c1 [QR2I-44, 7-methoxy-4-(pyridin-3-yl) methylaminoquinoline] | ~200% | ~300% | 30-35% |  | 
70.9 µM | CCN(CC)CCCC(C)Nc1ccnc2cc(Cl)ccc12 (stereo not shown) [chloroquine] |  |  |  | 60% | ~100%

— US12331032B2, “Quinone reductase 2 inhibitor compounds and uses thereof” (DUKE UNIVERSITY, priority 2018, dated 2025)
